Data from PubChem BioAssay (NCI).
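Tested at 5 concentrations; 48 h exposure; 96-well plates; endpoints linearly interpolated, else capped at highest concentration. The concentration for 50% growth inhibition is given as GI50. TGI is the concentration that stops growth completely.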

What was measured:
Assay in all cases: DTP human tumour cell line panel, 48 h
[1] = system: NCI-H460 lung
[2] = system: NCI/ADR-RES ovarian
[3] = system: OVCAR-3 ovarian
[4] = system: OVCAR-4 ovarian
[5] = system: OVCAR-5 ovarian
[6] = system: OVCAR-8 ovarian
[7] = system: PC-3 prostate
[8] = system: RPMI-8226 leukemia
[9] = system: RXF 393 renal
[10] = system: SF-268 CNS
[11] = system: SF-295 CNS
[12] = system: SF-539 CNS
[13] = system: SK-MEL-2 melanoma
[14] = system: SK-MEL-28 melanoma
[15] = system: SK-MEL-5 melanoma
[16] = system: SK-OV-3 ovarian
[17] = system: SN12C renal
[18] = system: SNB-19 CNS
[19] = system: SNB-75 CNS
[20] = system: SR leukemia
[21] = system: SW-620 colon
[22] = system: T-47D breast
[23] = system: TK-10 renal
[24] = system: U251 CNS
[25] = system: UACC-257 melanoma
[26] = system: UACC-62 melanoma
[27] = system: UO-31 renal

C[C@]12CC[C@@H]3c4ccc(O)cc4CC[C@H]3[C@@H]1CC[C@@H]2NS(=O)(=O)c1ccc(Br)cc1
GI50 [1]: 2.15 µM | TGI [1]: 4.81 µM | GI50 [2]: 2.81 µM | TGI [2]: 8.79 µM | GI50 [3]: 2.18 µM | TGI [3]: 4.43 µM | GI50 [4]: 3.01 µM | TGI [4]: 12.4 µM | GI50 [5]: 2.31 µM | TGI [5]: 6.03 µM | GI50 [6]: 3.14 µM | TGI [6]: 11.3 µM | GI50 [7]: 2.6 µM | TGI [7]: 13.8 µM | GI50 [8]: 2.68 µM | TGI [8]: 7.37 µM | GI50 [9]: 2.43 µM | TGI [9]: 4.99 µM | GI50 [10]: 3.43 µM | TGI [10]: 13.4 µM | GI50 [11]: 1.75 µM | TGI [11]: 3.29 µM | GI50 [12]: 2.04 µM | TGI [12]: 3.92 µM | GI50 [13]: 2.35 µM | TGI [13]: 5.3 µM | GI50 [14]: 2.19 µM | TGI [14]: 5.09 µM | GI50 [15]: 1.76 µM | TGI [15]: 3.22 µM | GI50 [16]: 4.53 µM | TGI [16]: 13.6 µM | GI50 [17]: 1.79 µM | TGI [17]: 3.5 µM | GI50 [18]: 3.94 µM | TGI [18]: 16.9 µM | GI50 [19]: 2.1 µM | TGI [19]: 9.15 µM | GI50 [20]: 3.37 µM | TGI [20]: 39.3 µM | GI50 [21]: 3.35 µM | TGI [21]: 13.1 µM | GI50 [22]: 3.35 µM | TGI [22]: 10.3 µM | GI50 [23]: 3.84 µM | TGI [23]: 12.2 µM | GI50 [24]: 2.89 µM | TGI [24]: 10.6 µM | GI50 [25]: 2.56 µM | TGI [25]: 8.12 µM | GI50 [26]: 1.76 µM | TGI [26]: 3.68 µM | GI50 [27]: 1.76 µM | TGI [27]: 4.35 µM
